In patent publication US7989442B2, “Progesterone receptor modulators” (N.V. Organon, priority 2006, dated 2011):

Columns and labels:
[1] = test system: mature cyclic rats; assay: Ovulation inhibition in rat after oral administration (in vivo progestagenic activity); conditions: 96 h, minimal active dose: average number of ova reduced by 60% relative to placebo, oral administration for 1 complete cycle (4 days), read-out: MAD
Description: Ovulation inhibition after oral administration of the compounds of the invention was studied in mature cyclic rats. Animals were treated with test compound (oral administration) for 1 complete cycle (4 days, from oestrus to pro-oestrus) and the number of ova in the oviduct was microscopically assessed at autopsy in the morning of the next (expected) oestrus. The average number of ova per rat was calculated; the minimal active dose (MAD) is defined as the level at which the average number of ova is reduced by 60% relative to placebo-treated animals.

N#Cc1cc2c(cc1F)Oc1ccccc1[C@@H]1[C@@H](NC(=O)C(F)(F)F)CCCN21 (stereo in doubt) [Example 2, (−)-(cis)-N-(7-cyano-8-fluoro-1,3,4,14b-tetrahydro-2H-dibenzo [b,f]pyrido[1,2-d][1,4]oxazepin-1-yl)-2,2,2-trifluoroacetamide]
minimal effective dose [1]: 0.014 mg/kg

N#Cc1c(F)cc2c(c1Cl)N1CCC[C@H](NC(=O)C(F)(F)F)[C@H]1c1ccccc1O2 (stereo in doubt) [Example 3, (−)-(cis)-N-[6-chloro-7-cyano-8-fluoro-1,3,4,14b-tetrahydro-2H-dibenzo [b,f]pyrido[1,2-d][1,4]oxazepin-1-yl]-2,2,2-trifluoroacetamide]
minimal effective dose [1]: 0.08 mg/kg

N#Cc1c(F)cc2c(c1C#N)N1CCC[C@H](NC(=O)C(F)(F)F)[C@H]1c1ccccc1O2 (stereo in doubt) [Example 4, (−)-(cis)-N-(6,7-dicyano-8-fluoro-1,3,4,14b-tetrahydro-2H-dibenzo [b,f]pyrido[1,2-d][1,4]oxazepin-1-yl)-2,2,2-trifluoroacetamide]
minimal effective dose [1]: 0.02 mg/kg

N#Cc1c(F)cc2c(c1Cl)N1CCC[C@H](NC(=O)C(F)(F)F)[C@H]1c1ccc(F)cc1O2 (stereo in doubt) [Example 5, (−)-(cis)-N-(6-chloro-7-cyano-8,12-difluoro-1,3,4,14b-tetrahydro-2H-dibenzo [b,f]pyrido[1,2-d][1,4]oxazepin-1-yl)-2,2,2-trifluoroacetamide]
minimal effective dose [1]: ≤ 0.025 mg/kg | melting point: 174 to 175 °C

CC(=O)N[C@H]1CCCN2c3c(cc(F)c(C#N)c3Cl)Oc3cccc(F)c3[C@H]12 (stereo in doubt) [Example 6, (−)-(cis)-N-(6-chloro-7-cyano-8,14-difluoro-1,3,4,14b-tetrahydro-2H-dibenzo [b,f]pyrido[1,2-d][1,4]oxazepin-1-yl)acetamide]
minimal effective dose [1]: < 0.02 mg/kg

N#Cc1c(F)cc2c(c1Cl)N1CCC[C@H](NC(=O)C(F)(F)F)[C@H]1c1cccc(F)c1O2 (stereo in doubt) [Example 7, (−)-(cis)-N-(6-chloro-7-cyano-8,11-difluoro-1,3,4,14b-tetrahydro-2H-dibenzo [b,f]pyrido[1,2-d][1,4]oxazepin-1-yl)-2,2,2-trifluoroacetamide]
minimal effective dose [1]: 0.025 mg/kg

N#Cc1cc2c(cc1F)Oc1cccc(F)c1[C@@H]1[C@@H](NC(=O)C(F)(F)F)CCCN21 (stereo in doubt) [Example 8, (−)-(cis)-N-(7-cyano-8,14-difluoro-1,3,4,14b-tetrahydro-2H-dibenzo [b,f]pyrido[1,2-d][1,4]oxazepin-1-yl)-2,2,2-trifluoroacetamide]
minimal effective dose [1]: 0.01 mg/kg

N#Cc1c(F)cc2c(c1Cl)N1CCC[C@H](NC(=O)C(F)(F)F)[C@H]1c1c(F)cccc1O2 (stereo in doubt) [Example 9, (−)-(cis)-N-(6-chloro-7-cyano-8,14-difluoro-1,3,4,14b-tetrahydro-2H-dibenzo [b,f]pyrido[1,2-d][1,4]oxazepin-1-yl)-2,2,2-trifluoroacetamide]
minimal effective dose [1]: < 0.02 mg/kg

CC(=O)c1cccc2c1N1CCC[C@H](NC(=O)C(F)(F)F)[C@H]1c1ccccc1O2 [eutomer of example 52 of WO03/ 084963, reference compound]
minimal effective dose [1]: > 4 mg/kg

C=Cc1cccc2c1N1CCC[C@H](NC(=O)C(F)(F)F)[C@H]1c1ccccc1O2 [eutomer of example 54 of WO03/ 084963, reference compound]
minimal effective dose [1]: > 4 mg/kg

N#Cc1cc(F)cc2c1N1CCC[C@H](NC(=O)C(F)(F)F)[C@H]1c1ccccc1O2 [eutomer of example 58 of WO03/ 084963, reference compound]
minimal effective dose [1]: 0.38 mg/kg

N#Cc1ccc2c(c1)N1CCC[C@H](NC(=O)C(F)(F)F)[C@H]1c1ccccc1O2 [eutomer of example 63 of WO03/ 084963, reference compound]
minimal effective dose [1]: ~4 mg/kg

CC(=O)N[C@H]1CCCN2c3c(ccc(Cl)c3Cl)Oc3ccccc3[C@H]12 [example 47 of WO03/ 084963, reference compound]
minimal effective dose [1]: > 4 mg/kg

CC(=O)c1cc(F)cc2c1N1CCC[C@H](NC(=O)C(F)(F)F)[C@H]1c1ccccc1O2 [example 57 of WO03/ 084963, reference compound]
minimal effective dose [1]: > 4 mg/kg

C=Cc1cc(F)cc2c1N1CCC[C@H](NC(=O)C(F)(F)F)[C@H]1c1ccccc1O2 [example 59 of WO03/ 084963, reference compound]
minimal effective dose [1]: > 4 mg/kg

Cc1cc(F)cc2c1N1CCC[C@H](NC(=O)C(F)(F)F)[C@H]1c1ccccc1O2 [example 60 of WO03/ 084963, reference compound]
minimal effective dose [1]: ~1 mg/kg
